Measurements published in ChEMBL document CHEMBL1146079, “Inhibition of human acetyl- and butyrylcholinesterase by novel carbamates of (-)- and (+)-tetrahydrofurobenzofuran and methanobenzodioxepine” (J Med Chem, 2006).

Columns and labels:
Acetylcholinesterase = Acetylcholinesterase (Homo sapiens, UniProt P22303)
Description: Anticholinesterase activity against human erythrocyte AChE

Cholinesterase = Cholinesterase (Homo sapiens, UniProt P06276)
Cholinesterase, sequence (P06276 whole entry): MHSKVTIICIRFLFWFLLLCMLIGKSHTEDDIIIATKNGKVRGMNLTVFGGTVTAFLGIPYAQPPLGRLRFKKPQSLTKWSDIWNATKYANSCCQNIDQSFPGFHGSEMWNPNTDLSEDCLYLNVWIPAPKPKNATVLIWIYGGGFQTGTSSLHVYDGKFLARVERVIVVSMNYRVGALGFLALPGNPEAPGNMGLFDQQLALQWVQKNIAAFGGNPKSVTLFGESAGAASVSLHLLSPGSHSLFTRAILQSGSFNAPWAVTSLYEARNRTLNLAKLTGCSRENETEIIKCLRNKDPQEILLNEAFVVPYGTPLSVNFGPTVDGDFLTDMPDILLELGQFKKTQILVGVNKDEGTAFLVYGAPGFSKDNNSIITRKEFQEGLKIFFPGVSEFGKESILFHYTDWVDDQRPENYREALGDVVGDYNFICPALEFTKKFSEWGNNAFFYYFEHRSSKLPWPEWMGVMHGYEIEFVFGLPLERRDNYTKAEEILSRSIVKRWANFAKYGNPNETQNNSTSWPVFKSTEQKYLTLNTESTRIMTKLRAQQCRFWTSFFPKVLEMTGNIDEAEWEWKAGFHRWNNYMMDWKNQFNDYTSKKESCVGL
Description: Anticholinesterase activity against human plasma BChE

Acetylcholinesterase, sequence (P22303 whole entry): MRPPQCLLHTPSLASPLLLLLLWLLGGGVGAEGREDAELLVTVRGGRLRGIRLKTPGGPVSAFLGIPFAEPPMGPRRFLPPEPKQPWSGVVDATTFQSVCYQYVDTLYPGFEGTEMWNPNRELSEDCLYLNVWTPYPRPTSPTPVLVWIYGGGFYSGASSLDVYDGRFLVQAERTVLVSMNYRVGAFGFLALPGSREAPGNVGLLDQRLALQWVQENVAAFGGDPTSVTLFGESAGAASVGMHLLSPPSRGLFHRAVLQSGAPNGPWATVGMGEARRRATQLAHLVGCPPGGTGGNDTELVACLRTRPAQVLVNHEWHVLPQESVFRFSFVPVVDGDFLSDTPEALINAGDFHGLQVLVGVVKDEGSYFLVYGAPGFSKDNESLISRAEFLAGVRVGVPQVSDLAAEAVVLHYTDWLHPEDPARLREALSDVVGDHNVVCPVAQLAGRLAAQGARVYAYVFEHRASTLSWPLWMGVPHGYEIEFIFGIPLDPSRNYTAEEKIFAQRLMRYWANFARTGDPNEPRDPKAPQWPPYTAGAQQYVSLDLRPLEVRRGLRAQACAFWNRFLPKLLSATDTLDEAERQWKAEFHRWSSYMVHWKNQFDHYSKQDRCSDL

SMILES	IC50 (Acetylcholinesterase)	IC50 (Cholinesterase)
Cc1ccccc1NC(=O)Oc1ccc2c(c1)[C@]1(C)CO[C@@H](C1)O2	97 nM	–
CCNC(=O)Oc1ccc2c(c1)[C@@]1(C)CO[C@H](C1)O2	610 nM	23 nM
Cc1ccccc1NC(=O)Oc1ccc2c(c1)[C@]1(C)CCO[C@@H]1O2	–	11400 nM
Cc1ccccc1NC(=O)Oc1ccc2c(c1)[C@@]1(C)CCO[C@H]1O2	–	36400 nM
CC(C)c1ccc(NC(=O)Oc2ccc3c(c2)[C@@]2(C)CCO[C@H]2O3)cc1	–	40 nM
Cc1ccccc1NC(=O)Oc1ccc2c(c1)[C@@]1(C)CCO[C@H]1N2C	142 nM	5100 nM
CCNC(=O)Oc1ccc2c(c1)[C@]1(C)CCO[C@@H]1O2	100 nM	3 nM
CNC(=O)Oc1ccc2c(c1)[C@@]1(C)CCO[C@H]1N2C	56 nM	56 nM
CCNC(=O)Oc1ccc2c(c1)[C@]1(C)CCO[C@@H]1N2C	82 nM	2 nM
CNC(=O)Oc1ccc2c(c1)[C@]1(C)CCO[C@@H]1N2C	–	4 nM
CCNC(=O)Oc1ccc2c(c1)[C@]1(C)CCN(C)[C@@H]1N2C	94 nM	4 nM
CC(C)c1ccc(NC(=O)Oc2ccc3c(c2)[C@@]2(C)CO[C@H](C2)O3)cc1	–	15 nM
CC(C)c1ccc(NC(=O)Oc2ccc3c(c2)[C@]2(C)CO[C@@H](C2)O3)cc1	3430 nM	54 nM
Cc1ccccc1NC(=O)Oc1ccc2c(c1)[C@@]1(C)CCN(C)[C@H]1N2C	5510 nM	–
CC(C)c1ccc(NC(=O)Oc2ccc3c(c2)[C@]2(C)CCO[C@@H]2O3)cc1	–	13 nM
CC(C)c1ccc(NC(=O)Oc2ccc3c(c2)[C@@]2(C)CCO[C@H]2N3C)cc1	–	23 nM
Cc1ccccc1NC(=O)Oc1ccc2c(c1)[C@@]1(C)CO[C@H](C1)O2	38 nM	52000 nM
CC(C)c1ccc(NC(=O)Oc2ccc3c(c2)[C@]2(C)CCO[C@@H]2N3C)cc1	3860 nM	17 nM
CCNC(=O)Oc1ccc2c(c1)[C@]1(C)CO[C@@H](C1)O2	2420 nM	120 nM
CCNC(=O)Oc1ccc2c(c1)[C@@]1(C)CCO[C@H]1O2	486 nM	28 nM
